The text below walks through data of ChEMBL document CHEMBL1145744, “Anti-HIV agents. Part 55: 3'R,4'R-Di-(O)-(-)-camphanoyl-2',2'-dimethyldihydropyrano[2,3-f]chromone (DCP), a novel anti-HIV agent” (Bioorg Med Chem Lett, 2003).

Experiment [1] in a line: In vitro therapeutic index was measured from IC50 to EC50 towards HIV-1 replication in cell growth in H9 lymphocytes. Type of experiment: functional.
Another experiment relates to H9. Briefly: Concentration that inhibits HIV-1 replication in cell growth in H9 lymphocytes. Type of experiment: functional, cell-based. The note with it: Homo sapiens.

With `CC1(C)Oc2ccc3ccc(=O)oc3c2[C@@H](OC(=O)C23CCC(C)(C(=O)O2)C3(C)C)[C@H]1OC(=O)C12CCC(C)(C(=O)O1)C2(C)C` (stereo partly specified), the TI in experiment [1] turned out to be 136719.

As for `CC1(C)Oc2ccc3c(=O)ccoc3c2[C@@H](OC(=O)C23CCC(C)(C(=O)O2)C3(C)C)[C@H]1OC(=O)C12CCC(C)(C(=O)O1)C2(C)C` (stereo partly specified), in the experiment on H9, the midpoint of the response, the EC50, lay at 0.000678 µM and the IC50 came to 9.83 µM. In experiment [1], this molecule displayed a TI of 14500.

In turn, `Cc1cn([C@H]2C[C@H](N=[N+]=[N-])[C@@H](CO)O2)c(=O)[nH]c1=O` [ZIDOVUDINE] showed an IC50 in the experiment with H9 of 500 µM. The molecule also returned a TI in experiment [1] of 11200.

As usually defined, the EC50 is the concentration that produces a half-maximal response. The low end stands for higher potency in that assay, the high end for lower potency in that assay. As a reminder, the IC50 is the concentration needed to halve the response being measured. Low readings indicate higher potency, high ones lower potency.
